These results are taken from ChEMBL document CHEMBL3044802, “Synthesis, in vitro antimicrobial and antioxidant activities of chalcone and flavone derivatives holding allylic substitutions” (Med Chem Res, 2011).

Format in all cases: functional
The nature of assay [1]: Antioxidant activity assessed as Fe2+ reducing power after 20 min.
Assay [2] relates to Radical scavenging activity. The assay can be described thus: Antioxidant activity assessed as DPPH free radical scavenging activity after 30 min by UV-VIS spectrophotometer analysis. A general note: Loss of DPPH colour is used to gauge radical scavenging.
The next assay has as its system Kluyveromyces marxianus. In words: Antimicrobial activity against Kluyveromyces marxianus after overnight incubation by conventional agar-dilution method.
For assay [3], the system named is Staphylococcus epidermidis. The assay can be described thus: Antimicrobial activity against Staphylococcus epidermidis after overnight incubation by conventional agar-dilution method.
The subject of the next assay is Staphylococcus aureus. The assay can be described thus: Antimicrobial activity against Staphylococcus aureus after overnight incubation by conventional agar dilution method. In general terms: In agar dilution the substance is mixed into plates at graded concentrations.
The next assay relates to Escherichia coli. The assay can be described thus: Antimicrobial activity against Escherichia coli after overnight incubation by conventional agar-dilution method.

In brackets after ≈: the same amount, converted by molar mass.

On to `C=CCOc1c(/C=C/C(=O)c2cccc(CC=C)c2O)cccc1OC`, for which the results for the IC50 in assay [1] and in assay [2] were 1.87 µM and 163 µM, respectively. Moreover, the MIC is 512 µg/mL (≈ 1460 µM) in the assay with Kluyveromyces marxianus, above 1000 µg/mL in assay [3], above 1000 µg/mL against Staphylococcus aureus and 512 µg/mL (≈ 1460 µM) against Escherichia coli.
For `Cc1cc(NS(=O)(=O)c2ccc(N)cc2)no1` [SULFAMETHOXAZOLE], the MIC (in assay [3]; in the assay on Staphylococcus aureus; in the assay on Escherichia coli) was 4 µg/mL (≈ 15.8 µM) each time.
For the molecule `C=CCOc1ccc(-c2cc(=O)c3cccc(CC=C)c3o2)cc1OC`, the concentration for half-maximal inhibition (IC50) in assay [1] came out at 0.57 µM; in assay [2] it was 270 µM. The MIC in the assay on Kluyveromyces marxianus was above 512 µg/mL; in assay [3] it was above 1000 µg/mL; against Staphylococcus aureus it was above 1000 µg/mL; in the assay with Escherichia coli, above 512 µg/mL.
For the molecule `Cc1c(C)c2c(c(C)c1O)CCC(C)(C(=O)O)O2` (stereo not given) [TROLOX], the IC50 in assay [1] was determined as 41.9 µM; in assay [2], 36 µM.
The molecule `OC(Cn1cncn1)(Cn1cncn1)c1ccc(F)cc1F` [FLUCONAZOLE] displayed an MIC in the assay on Kluyveromyces marxianus of 4 µg/mL (≈ 13.1 µM).
With `C=CCOc1ccc(/C=C/C(=O)c2cccc(CC=C)c2O)cc1OC`, the IC50 in assay [1] was found to be 2.96 µM; in assay [2] it was 85 µM. Besides, the MIC in the assay with Kluyveromyces marxianus is 512 µg/mL (≈ 1460 µM); in assay [3], above 1000 µg/mL; against Staphylococcus aureus, above 1000 µg/mL; with Escherichia coli, 512 µg/mL (≈ 1460 µM).
Consider `C=CCOc1c(OC)cccc1-c1cc(=O)c2cccc(CC=C)c2o1`, for which the IC50 in assay [1] stood at 1.11 µM; in assay [2], 320 µM. The MIC was 512 µg/mL (≈ 1470 µM) in the assay with Kluyveromyces marxianus, above 1000 µg/mL in assay [3], above 1000 µg/mL in the assay with Staphylococcus aureus and above 512 µg/mL in the assay on Escherichia coli.

Broadly, the IC50 is the concentration at which inhibition is half-maximal. A word on the MIC: it is the least concentration at which growth counts as inhibited.
